Results taken from patent US8273543B2, “Regulation of BACE degradation” (The General Hospital Corporation, priority 2006, dated 2012).
Entries after “also recorded” stand apart in the source; their conditions may differ. Peptide text beside a SMILES is read from it. * marks the point of attachment. Cbz = O=C(OCc1ccccc1)*; CH2F = FC*

Columns and labels:
[1] = system: BACE; test: Induction of apoptosis, Western blot of BACE protein levels; assay type: cell-based, human; settings: H4-APP751 cells
Description: (§1) H4 human neuroglioma cells expressing APP751 (H4-APP751) and APP-SWE (H4-APPSWE) were grown in DMEM containing 10% FBS, 200 μg/mL G418, 250 μg/mL zeocin, 2 mM L-glutamine, 100 U/ml penicillin, 100 μg/mL streptomycin. For the induction of apoptosis, we used staurosporine or etoposide (Calbiochem). For time-course experiments, cells were seeded at a density of 2×10^6 cells per 100 mm dish and treated with STS (1 μM) or etoposide (100 μg/mL). In order to inhibit caspase activation a sister plate of cells was pretreated with zVAD (100 μM, Calbiochem) for 1 hr before STS treatment. At different time points (0, 3, 6, 9, 12, and 24 hr), the cells were scraped, centrifuged, and then lysed in buffer containing 1% NP40. Western blot analysis was performed as previously described (Tesco et al., 2003). Densitometry analysis was performed on a Macintosh computer using the public domain NIH Image program (developed at the U.S. National Institutes of Health and available on the Internet at rsb.info.nih.gov/nih-image/) or using a Versadoc Imager and QuantityOne software (BioRad).

[2] = system: GGA3; test: GGA3 cleavage during apoptosis in H4 cells, Western blot with anti-GGA3 antibody; assay type: cell-based, human; settings: for cleavage of full length GGA3: H4 cells, STS time course
Description: H4 cells were treated with staurosporine (STS) during time course experiments.
as §1

[3] = system: BACE; settings: caspase inhibition; cited from earlier work
[4] = system: BACE; settings: variety of cell types, including primary neurons; cited from earlier work
[5] = system: APP-C99; test: APP-C99 levels during apoptosis, Western blot with WO2 antibody; assay type: cell-based, human; settings: H4-APP751 cells, apoptosis induced by STS
Description: (§2) Gervais and colleagues (Gervais et al., 1999) proposed that caspase-mediated cleavage of APP at APPD720 was responsible for increased Aβ generation associated with apoptosis. […] The Aβ ELISA measured Aβ1-total using biotinylated 3D6, which specifically recognizes the aspartate in position 1 of Aβ, as a reporter antibody. […] Here, we investigated whether apoptosis-mediated increases in Aβ levels may be due to enhanced cleavage of APP by BACE, the protease responsible for β-secretase cleavage of APP (Vassar et al., 1999). For this purpose, we tested whether apoptosis/caspase activation leads to increased levels of APP-C99, the C-terminal fragment generated by β-secretase cleavage of APP. […]
(§3) H4 human neuroglioma cells expressing APP751 (H4-APP751) and APP-SWE (H4-APPSWE) were grown in DMEM containing 10% FBS, 200 μg/mL G418, 250 μg/mL zeocin, 2 mM L-glutamine, 100 U/ml penicillin, 100 μg/mL streptomycin. […] Densitometry analysis was performed on a Macintosh computer using the public domain NIH Image program (developed at the U.S. National Institutes of Health and available on the Internet at rsb.info.nih.gov/nih-image/) or using a Versadoc Imager and QuantityOne software (BioRad).

[6] = system: caspase 3; test: Caspase 3 activation, Western blot with anti-caspase 3 active fragment antibody; assay type: cell-based, human; settings: H4-APP751 cells, STS treatment
Description: as §2, §3

[7] = system: Aβ1-total; settings: CHO cells, 6 hr treatment; cited from earlier work
[8] = system: BACE mRNA; test: Northern blot analysis of BACE mRNA; assay type: cell-based, human; settings: H4-APP751 cells, 6 hr of STS treatment
Description: Total RNA was extracted using TRIZOL (Invitrogen). Northern blot analysis was performed as previously described (Koh et al., 2001). Human cDNA of BACE was labeled with […] (PerkinElmer, Norwalk Conn.) using random hexanucleotide primers (Prime-a-gene labeling system; Promega Madison Wis.).

[9] = system: GGA3; test: Full length GGA3 in primary cortical neurons treated with STS, Western blot; assay type: cell-based; settings: primary cortical neurons (PCN), STS for 12 hr
Description: FIG. 5b: rat brain samples from the experiment described in FIG. 7. […] FIG. 5c: H4 and primary cortical neurons (PCN) were treated with STS for 12 hr.

[10] = system: TACE and APP; test: Cycloheximide degradation time-course, TACE and APP; assay type: cell-based, human; settings: H4-APP751 cells, STS+CHX vs CHX (40 μg/ml) only
Description: (§4) H4-APP751 cells were treated with CHX (40 μg/ml) only or STS (1 μM)+CHX during a 30 hr time-course. Lysates from each time point were immunoblotted with the specific antibodies, anti-BACE, anti-TACE, and the anti-APP antibody […].

[11] = system: BACE; test: Cycloheximide degradation time-course, BACE; assay type: cell-based, human; settings: H4-APP751 cells, STS+CHX vs CHX (40 μg/ml) only
Description: as §4

[12] = system: ischemic and excitotoxic neuronal damage; settings: intracerebroventricular injection before ischemia and immediately after reperfusion; cited from earlier work
[13] = system: GGA3; test: In vitro translation and recombinant caspase 3 cleavage assay; assay type: biochemical, human; settings: recombinant caspase 3
Description: The HA-GGA3 pcDNA4 plasmid was a generous gift from Dr. Waguri. GGA3 was in vitro translated (IVT) in the presence of [^35S]-labeled methionine using TNT Quick Coupled Transcription/Translation Systems as indicated by the manufacturer (Promega, Madison Wis.). 5 μL of IVT reaction were incubated with or without 200 ng of recombinant caspase 3 (Pharmingen, San Diego, Calif.) in caspase reaction buffer (sucrose 20%, NaCl 100 mM, HEPES (pH 7.4) 20 mM, CHAPS 0.1%, DTT 10 mM, EDTA 1 mM) at 37° for 2 hr. The reactions were separated by SDS-page (4-12% Bis-tricine gel with MES running buffer, Invitrogen Carlsbad, Calif.). The gel was fixed, dried and exposed to a phosphorimager screen. The images were acquired with a FX phosphorimager (Bio-Rad, Hercules Calif.). GGA3 in vitro translation was also performed in the presence of cold methionine. Then, 5 μL of IVT reaction were incubated with or without 200 ng of recombinant caspase 3 overnight at 37°. The reactions were separated by SDS-page. In order to better separate the bands generated by caspase 3 cleavage we used 12% Bis-tricine gel and MOPS running buffer (Invitrogen). Then, the proteins were transferred to PVDF membrane and WB analysis with anti-GGA3 antibody was performed.

[14] = system: Aβ40; test: Secreted Aβ40 in conditioned media, sandwich ELISA; assay type: cell-based, human; settings: H4-APP751 cells expressing GGA3DN
Description: Secreted Aβ40 was measured in the conditioned media using an Aβ40-specific sandwich ELISA (BioSource International, Camarillo, Calif.). Aβ concentration was normalized against the concentration of protein in the cell lysates.
H4 cells stably expressing wild-type APP-751 or APP containing the Swedish FAD mutation (APPSwe) were transfected with 200 nM siGGA3 (ID #36847, Ambion, Austin Tex.) or a 19 bp scrambled sequence was used as negative control for siRNA (Silencer Negative control #1 siRNA, Ambion) using oligofectamine following manufacturer's instructions (Invitrogen). 72 hr later, GGA3 levels were determined by WB analysis with anti-GGA3 antibody (Transduction Laboratories). At the same time point, a sister plate of the same cells was co-transfected with myc-tagged BACE plasmid and siGGA3 or siNeg. After 48 hr the media was replaced. Cells and media were collected after 72 hr following the co-transfection.

[15] = system: BACE; test: Co-transfection of GGA3DN with myc-tagged BACE in H4-APP751 cells, BACE levels; assay type: cell-based, human
Description: To address this possibility we engineered a HA-tagged GGA3 N-terminal fragment 1-313 mimicking the N-terminal caspase-derived fragment generated by cleavage at D313 (GGA3DN). […] During apoptosis, however, caspase-mediated cleavage of GGA3 results not only in the production of GGA3DN but also the degradation of GGA3.

COc1cc([C@@H]2c3cc4c(cc3[C@@H](O[C@@H]3O[C@@H]5CO[C@@H](C)O[C@H]5[C@H](O)[C@H]3O)[C@H]3COC(=O)[C@H]23)OCO4)cc(OC)c1O [etoposide]
BACE protein levels ([1]; apoptosis induced by etoposide): increased BACE protein levels

CC(NC(=O)C(NC(=O)OCc1ccccc1)C(C)C)C(=O)NC(CC(=O)O)C(=O)CF (stereo not drawn) [zVAD] (Cbz-Val-Ala-Asp-CH2F; configuration not given here)
BACE accumulation during STS or etoposide treatment ([1]; caspase inhibition): prevented BACE accumulation
cleavage of GGA3 during apoptosis ([2]; apoptotic H4 cells, caspase inhibition): inhibited; also recorded: prevented
increase in Aβ production during apoptosis [3]: prevent
stabilization of BACE during apoptosis [3]: prevent the stabilization of BACE

Cl.N [NH4Cl]
accumulation of endogenous and ectopically expressed BACE [4]: lead to accumulation

CCN(CC)CCCC(C)Nc1ccnc2cc(Cl)ccc12 (centres unmarked) [chloroquine]
accumulation of endogenous and ectopically expressed BACE [4]: lead to accumulation

CN[C@@H]1C[C@H]2O[C@@](C)([C@@H]1OC)n1c3ccccc3c3c4c(c5c6ccccc6n2c5c31)C(=O)NC4 [STS, staurosporine]
levels of APP-C99 [5]: increased levels of C99
earliest time of caspase 3 activation [6]: 6 h
Aβ1-total production compared to untreated cells [7]: significantly increased
BACE mRNA levels [8]: virtually undetectable
full length GGA3 [9]: decrease in full length GGA3
increase in BACE protein levels ([1]; 12 hr of STS treatment): ~6 fold
increase in BACE protein levels ([1]; 24 hr of STS treatment): ~9 fold
degradation of TACE and APP [10]: unchanged
degradation of BACE [11]: degradation of BACE was decreased
cleavage of full length GGA3 [2]: cleaved into two major fragments
cleavage of full length GGA3 ([2]; listed as staurosporine): cleaved in two major fragments

COC(=O)CC[C@H](NC(=O)[C@H](CC(=O)OC)NC(=O)OCc1ccccc1)C(=O)N[C@H](C(=O)N[C@@H](CC(=O)OC)C(=O)CF)C(C)C [zDEVD.FMK]
ischemic and excitotoxic neuronal damage [12]: significantly reduces

COC(=O)C[C@H](NC(=O)[C@H](C)NC(=O)[C@@H](NC(=O)OCc1ccccc1)C(C)C)C(=O)CF [z-VAD.FMK] (Cbz-Val-Ala-Asp(OMe)-CH2F)
ischemic and excitotoxic neuronal damage [12]: significantly reduces

B1: recombinant caspase 3: Recombinant caspase 3 purchased from Pharmingen (protein)
chain: SGISLDNSYKMDYPEMGLCIIINNKNFHKSTGMTSRSGTDVDAANLRETFRNLKYEVRNKNDLTREEIVELMRDVSKEDHSKRSSFVCVLLSHGEEGIIFGTNGPVDLKKITNFFRGDRCRSLTGKPKLFIIQACRGTELDCGIETDSGVDDDMACHKIPVEADFLYAYSTAPGYYSWRNSKDGSWFIQSLCAMLKQYADKLEFMHILTRVNRKVATEFESFSFDATFHAKKQIPCIVSMLTKELYFYH
cleavage of in vitro translated GGA3 (cold methionine), Western blot [13]: three major fragments

B2: GGA3DN: HA-tagged GGA3 N-terminal fragment 1-313 mimicking the N-terminal caspase-derived fragment generated by cleavage at D313 (protein, UniProt Q9NZ52 1-313, looked up, fragment)
chain: MAEAEGESLESWLNKATNPSNRQEDWEYIIGFCDQINKELEGPQIAVRLLAHKIQSPQEWEALQALTVLEACMKNCGRRFHNEVGKFRFLNELIKVVSPKYLGDRVSEKVKTKVIELLYSWTMALPEEAKIKDAYHMLKRQGIVQSDPPIPVDRTLIPSPPPRPKNPVFDDEEKSKLLAKLLKSKNPDDLQEANKLIKSMVKEDEARIQKVTKRLHTLEEVNNNVRLLSEMLLHYSQEDSSDGDRELMKELFDQCENKRRTLFKLASETEDNDNSLGDILQASDNLSRVINSYKTIIEGQVINGEVATLTLPD
modifications: HA tag
notes: HA-tagged GGA3 N-terminal fragment 1-313 mimicking the N-terminal caspase-derived fragment generated by cleavage at D313
levels of secreted Aβ40 [14]: the increase was not statistically significant
BACE levels compared to vector alone or GGA3 [15]: BACE levels were increased
